Tests used:
human recombinant HDAC6 = molecular target: T1, human recombinant HDAC6 (Homo sapiens, UniProt Q9UBN7); experiment: HDAC6 enzyme activity inhibition (HDAC Fluorimetric Drug Discovery Kit); assay type: biochemical; conditions: for HDAC6 selectivity (fold): HDAC1 IC50 / HDAC6 IC50; for IC50: human recombinant HDAC6, IC50 calculated with GraphPad Prism
T1 construct: purchased Calbiochem Inc. 382180
T1 sequence (Q9UBN7 1-1215): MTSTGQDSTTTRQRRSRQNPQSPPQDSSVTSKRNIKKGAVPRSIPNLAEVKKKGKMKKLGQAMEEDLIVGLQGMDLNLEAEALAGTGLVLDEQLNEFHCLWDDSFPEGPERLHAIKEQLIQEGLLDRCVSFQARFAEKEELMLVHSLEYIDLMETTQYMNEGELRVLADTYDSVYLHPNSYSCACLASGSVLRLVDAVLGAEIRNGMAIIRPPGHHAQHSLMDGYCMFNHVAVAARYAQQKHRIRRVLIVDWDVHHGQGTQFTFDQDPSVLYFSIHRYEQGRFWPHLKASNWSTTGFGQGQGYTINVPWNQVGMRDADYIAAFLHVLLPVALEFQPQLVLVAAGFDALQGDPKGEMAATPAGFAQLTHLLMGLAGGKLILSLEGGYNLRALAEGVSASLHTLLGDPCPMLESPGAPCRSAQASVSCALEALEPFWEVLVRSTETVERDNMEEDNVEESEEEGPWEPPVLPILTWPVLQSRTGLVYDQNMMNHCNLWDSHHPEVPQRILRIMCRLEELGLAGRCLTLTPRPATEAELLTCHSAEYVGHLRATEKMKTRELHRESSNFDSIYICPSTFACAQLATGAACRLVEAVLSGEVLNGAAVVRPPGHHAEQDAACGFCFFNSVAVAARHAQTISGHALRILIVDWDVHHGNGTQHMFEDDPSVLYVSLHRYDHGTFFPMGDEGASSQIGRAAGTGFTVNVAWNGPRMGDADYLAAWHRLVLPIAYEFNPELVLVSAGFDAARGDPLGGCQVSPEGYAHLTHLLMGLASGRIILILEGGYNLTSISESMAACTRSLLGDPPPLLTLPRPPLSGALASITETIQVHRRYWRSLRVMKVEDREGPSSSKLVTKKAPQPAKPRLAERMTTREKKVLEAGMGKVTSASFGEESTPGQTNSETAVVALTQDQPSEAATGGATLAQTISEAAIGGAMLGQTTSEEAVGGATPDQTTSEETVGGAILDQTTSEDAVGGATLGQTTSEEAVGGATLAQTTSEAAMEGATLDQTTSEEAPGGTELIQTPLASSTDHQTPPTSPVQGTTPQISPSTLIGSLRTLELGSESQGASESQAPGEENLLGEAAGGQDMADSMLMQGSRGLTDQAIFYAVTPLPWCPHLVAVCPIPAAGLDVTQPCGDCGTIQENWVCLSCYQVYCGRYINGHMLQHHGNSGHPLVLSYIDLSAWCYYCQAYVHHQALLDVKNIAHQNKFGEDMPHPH
Method in brief: (§1)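 Enzyme at 0.3 µg per well was reacted with 10 μM fluorogenic substrate in presence of 5-fold diluted compound, 30° C for 60 min.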

human recombinant HDAC1 = molecular target: T2, human recombinant HDAC1 (Homo sapiens, UniProt Q13547); experiment: HDAC1 enzyme activity inhibition (HDAC Fluorimetric Drug Discovery Kit); assay type: biochemical; conditions: human recombinant HDAC1; IC50 calculated with GraphPad Prism; read-out: HDAC1
T2 construct: purchased Enzo Life Science, Inc. BML-SE456
Method in brief: as §1

T2 sequence (Q13547 whole entry): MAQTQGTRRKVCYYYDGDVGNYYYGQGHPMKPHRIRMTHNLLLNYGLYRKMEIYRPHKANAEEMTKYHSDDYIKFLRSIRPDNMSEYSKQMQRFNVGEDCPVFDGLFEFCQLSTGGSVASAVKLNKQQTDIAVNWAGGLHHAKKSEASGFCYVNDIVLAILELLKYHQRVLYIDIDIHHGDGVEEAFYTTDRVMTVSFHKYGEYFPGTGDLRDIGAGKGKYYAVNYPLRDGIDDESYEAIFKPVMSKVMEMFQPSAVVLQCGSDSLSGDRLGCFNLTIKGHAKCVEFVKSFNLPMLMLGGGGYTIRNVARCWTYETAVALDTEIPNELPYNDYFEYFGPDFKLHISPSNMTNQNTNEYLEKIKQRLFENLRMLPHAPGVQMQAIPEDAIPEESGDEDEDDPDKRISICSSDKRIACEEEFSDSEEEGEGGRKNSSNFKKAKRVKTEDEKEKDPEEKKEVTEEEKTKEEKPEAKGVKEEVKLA

| SMILES | HDAC6 selectivity (fold) (human recombinant HDAC6) | IC50 (human recombinant HDAC6) [nM] | IC50 (human recombinant HDAC1) [nM] |
| --- | --- | --- | --- |
| CCN1CCc2ccc(-c3cn(Cc4ccc(-c5nnc(C(F)F)o5)cc4F)nn3)cc2C1 [Compound 4364, 2-(difluoromethyl)-5-(4-((4-(2-ethyl-1,2,3,4-tetrahydroisoquinolin-7-yl)-1H-1,2,3-triazol-1-yl)methyl)-3-fluorophenyl)-1,3,4-oxadiazole] | 1160 | 43.1 | > 50000 |
| CC(C)N1CCc2ccc(-c3cn(Cc4ccc(-c5nnc(C(F)F)o5)cc4F)nn3)cc2C1 [Compound 4365, 2-(difluoromethyl)-5-(3-fluoro-4-((4-(2-isopropyl-1,2,3,4-tetrahydroisoquinolin-7-yl)-1H-1,2,3-triazol-1-yl)methyl)phenyl)-1,3,4-oxadiazole] | 1089 | 45.9 | > 50000 |
| CCN1CCN(c2cccc(-c3cn(Cc4ccc(-c5nnc(C(F)F)o5)cc4)nn3)c2)CC1 [Compound 4368, 2-(difluoromethyl)-5-(4-((4-(3-(4-ethylpiperazin-1-yl)phenyl)-1H-1,2,3-triazol-1-yl)methyl)phenyl)-1,3,4-oxadiazole] | 1533 | 32.6 | > 50000 |
| CCCN1CCN(c2cccc(-c3cn(Cc4ccc(-c5nnc(C(F)F)o5)cc4)nn3)c2)CC1 [Compound 4369, 2-(difluoromethyl)-5-(4-((4-(3-(4-propylpiperazin-1-yl)phenyl)-1H-1,2,3-triazol-1-yl)methyl)phenyl)-1,3,4-oxadiazole] | 912 | 54.8 | > 50000 |
| CCC(=O)N1CCN(c2cccc(-c3cn(Cc4ccc(-c5nnc(C(F)F)o5)cc4)nn3)c2)CC1 [Compound 4372, 1-(4-(3-(1-(4-(5-(difluoromethyl)-1,3,4-oxadiazol-2-yl)benzyl)-1H-1,2,3-triazol-4-yl)phenyl)piperazin-1-yl)propan-1-one] | 724 | 69 | > 50000 |
| Fc1cc(-c2nnc(C(F)F)o2)ccc1Cn1cc(-c2cccc(N3CCN(C4CCC4)CC3)c2)nn1 [Compound 4376, 2-(4-((4-(3-(4-cyclobutylpiperazin-1-yl)phenyl)-1H-1,2,3-triazol-1-yl)methyl)-3-fluorophenyl)-5-(difluoromethyl)-1,3,4-oxadiazole] | 1094 | 45.7 | > 50000 |
| CCN1CC(N2CCc3cc(-c4cn(Cc5ccc(-c6nnc(C(F)F)o6)cc5F)nn4)ccc3C2)C1 [Compound 4392, 2-(difluoromethyl)-5-(4-((4-(2-(1-ethylazetidin-3-yl)-1,2,3,4-tetrahydroisoquinolin-6-yl)-1H-1,2,3-triazol-1-yl)methyl)-3-fluorophenyl)-1,3,4-oxadiazole] | 1262 | 39.6 | > 50000 |
| Fc1cc(-c2nnc(C(F)F)o2)ccc1Cn1cc(-c2ccc3c(c2)CCN(C2CN(C4CCC4)C2)C3)nn1 [Compound 4394, 2-(4-((4-(2-(1-cyclobutylazetidin-3-yl)-1,2,3,4-tetrahydroisoquinolin-6-yl)-1H-1,2,3-triazol-1-yl)methyl)-3-fluorophenyl)-5-(difluoromethyl)-1,3,4-oxadiazole] | 706 | 70.8 | > 50000 |
| Fc1cc(-c2nnc(C(F)F)o2)ccc1Cn1cc(-c2ccc3c(c2)CCN(C2CN(C4COC4)C2)C3)nn1 [Compound 4395, 2-(difluoromethyl)-5-(3-fluoro-4-((4-(2-(1-(oxetan-3-yl)azetidin-3-yl)-1,2,3,4-tetrahydroisoquinolin-6-yl)-1H-1,2,3-triazol-1-yl)methyl)phenyl)-1,3,4-oxadiazole] | 1024 | 48.8 | > 50000 |
| Fc1ccc(-c2cn(Cc3ccc(-c4nnc(C(F)F)o4)cc3)nn2)cc1N1CCNCC1 [Compound 4396, 2-(difluoromethyl)-5-(4-((4-(4-fluoro-3-(piperazin-1-yl)phenyl)-1H-1,2,3-triazol-1-yl)methyl)phenyl)-1,3,4-oxadiazole] | 619 | 80.7 | > 50000 |
| Fc1cc(-c2nnc(C(F)F)o2)ccc1Cn1cc(-c2ccc(F)c(N3CCNCC3)c2)nn1 [Compound 4397, 2-(difluoromethyl)-5-(3-fluoro-4-((4-(4-fluoro-3-(piperazin-1-yl)phenyl)-1H-1,2,3-triazol-1-yl)methyl)phenyl)-1,3,4-oxadiazole] | 766 | 65.2 | > 50000 |
| FC(F)c1nnc(-c2ccc(Cn3cc(-c4cccc(CN5CC(F)(F)C5)c4)nn3)nc2)o1 [Compound 4400, 2-(6-((4-(3-((3,3-difluoroazetidin-1-yl)methyl)phenyl)-1H-1,2,3-triazol-1-yl)methyl)pyridin-3-yl)-5-(difluoromethyl)-1,3,4-oxadiazole] | 1628 | 30.7 | > 50000 |
| FC(F)c1nnc(-c2ccc(Cn3cc(-c4cccc(CN5CCC(F)(F)CC5)c4)nn3)nc2)o1 [Compound 4401, 2-(difluoromethyl)-5-(6-((4-(3-((4,4-difluoropiperidin-1-yl)methyl)phenyl)-1H-1,2,3-triazol-1-yl)methyl)pyridin-3-yl)-1,3,4-oxadiazole] | 1126 | 44.4 | > 50000 |

The next lines start with the values.

| HDAC6 selectivity (fold) (human recombinant HDAC6) | IC50 (human recombinant HDAC6) [nM] | IC50 (human recombinant HDAC1) [nM] | SMILES |
| --- | --- | --- | --- |
| 1210 | 41.3 | > 50000 | Fc1cc(-c2nnc(C(F)F)o2)ccc1Cn1cc(-c2ccc3c(c2)CN(C2COC2)CC3)nn1 [Compound 4367, 2-(difluoromethyl)-5-(3-fluoro-4-((4-(2-(oxetan-3-yl)-1,2,3,4-tetrahydroisoquinolin-7-yl)-1H-1,2,3-triazol-1-yl)methyl)phenyl)-1,3,4-oxadiazole] |
| 228 | 21.9 | > 50000 | CCCN1CCN(c2cccc(-c3cn(Cc4ccc(-c5nnc(C(F)F)o5)cc4F)nn3)c2)CC1 [Compound 4374, 2-(difluoromethyl)-5-(3-fluoro-4-((4-(3-(4-propylpiperazin-1-yl)phenyl)-1H-1,2,3-triazol-1-yl)methyl)phenyl)-1,3,4-oxadiazole] |
| 1039 | 48.1 | > 50000 | CCC(=O)N1CCN(c2cccc(-c3cn(Cc4ccc(-c5nnc(C(F)F)o5)cc4F)nn3)c2)CC1 [Compound 4377, 1-(4-(3-(1-(4-(5-(difluoromethyl)-1,3,4-oxadiazol-2-yl)-2-fluorobenzyl)-1H-1,2,3-triazol-4-yl)phenyl)piperazin-1l-yl)propan-1l-one] |
| 1381 | 36.2 | > 50000 | CC(C)N1CC(N2CCc3cc(-c4cn(Cc5ccc(-c6nnc(C(F)F)o6)cc5F)nn4)ccc3C2)C1 [Compound 4393, 2-(difluoromethyl)-5-(3-fluoro-4-((4-(2-(1-isopropylazetidin-3-yl)-1,2,3,4-tetrahydroisoquinolin-6-yl)-1H-1,2,3-triazol-1-yl)methyl)phenyl)-1,3,4-oxadiazole] |
| 988 | 50.6 | > 50000 | Fc1ccc(-c2cn(Cc3ccc(-c4nnc(C(F)F)o4)cc3)nn2)cc1N1C[C@@H]2C[C@H]1CN2 [Compound 4398, 2-(4-((4-(3-((1S,4S)-2,5-diazabicyclo[2.2.1]heptan-2-yl)-4-fluorophenyl)-1H-1,2,3-triazol-1-yl)methyl)phenyl)-5-(difluoromethyl)-1,3,4-oxadiazole] |
| 460 | 108 | > 50000 | Fc1cc(-c2nnc(C(F)F)o2)ccc1Cn1cc(-c2ccc(F)c(N3C[C@@H]4C[C@H]3CN4)c2)nn1 [Compound 4399, 2-(4-((4-(3-((1S,4S)-2,5-diazabicyclo[2.2.1]heptan-2-yl)-4-fluorophenyl)-1H-1,2,3-triazol-1-yl)methyl)-3-fluorophenyl)-5-(difluoromethyl)-1,3,4-oxadiazole] |

— patent US20230257372A1 (CHONG KUN DANG PHARMACEUTICAL CORP., priority 2020, published 2023)
